Results on one compound are retold here after patent US12447151B2, “Alkyne derivative, preparation method for same, and uses thereof” (ZHEJIANG HISUN PHARMACEUTICAL CO., LTD., priority 2019, dated 2025).

In series [1] the target is recombinant human PI3Kβ (Homo sapiens (Human), UniProt P42338). Nature of the series: Inhibitory activity on PI3K kinase (ADP-Glo Kinase Assay).
Description: The following method is used to determine the degree of inhibition of recombinant human PI3Kα, PI3Kβ, PI3Kγ and PI3Kδ kinase activity by the compounds of the present invention under in vitro conditions. Promega's ADP-Glo Kinase Assay Kit (Cat. No. V9102) was used in this method. The above kit was a luminescence kinase detection kit, which was used to detect the ADP content produced by the kinase reaction. The ADP content was positively correlated with the kinase activity. By measuring the ADP content, the inhibition of the compound on the activity of PI3Kα, PI3Kβ, PI3Kγ and PI3Kδ kinases was reflected. […] Recombinant human PI3Kα, PI3Kγ, and PI3Kδ were purchased from Invitrogen, and PI3Kβ was purchased from Promega (category numbers were PI3Kα: PV4788; PI3Kβ: V1751; PI3Kγ: PV4786 and PI3Kδ: PV6451 separately).
Series [2] can be described thus: Oral pharmacokinetics in SD rats. It counts as in vivo. To be noted: male, rat, plasma, Oral (5 mg/kg). The protocol:
Using SD rats as test animals, the rats were intragastrically administrated with the compound of the present invention. LC/MS/MS method was used to determine the drug concentration in the plasma at different times to study the pharmacokinetic characteristics of the compound of the present invention in rats.
An appropriate amount of the compound to be tested was weighed, and 0.5% sodium carboxymethylcellulose (containing 0.05% Tween80) was added. The mixture was vortexed, and sonicated so that the solid was ultrasonically dispersed uniformly to obtain a suspension. 100 μL×2 of the filtered preparation were aspirated, and placed in 1.5-mL EP tubes, stored at […]. The concentration of the preparation was 0.5 mg/mL.
Nine healthy adult male SD rats were fasted overnight and then intragastrically administered (dosage of administration was 5 mg/kg), and fed 4 hours after administration.
About 0.2 mL of blood was collected from the jugular vein at 0.083 hours, 0.25 hours, 0.5 hours, 1 hour, 2 hours, 4 hours, 8 hours, 12 hours, and 24 hours after administration, and heparin sodium was used for anticoagulation. The collected blood samples were placed on ice and centrifuged to separate the plasma (centrifugation conditions: 1500 g, 10 minutes). The collected plasma was stored at −40 to −20° C. before analysis. The LC-MS/MS method was used to determine the content of the test compound in the plasma of SD rats after intragastric administration of different compounds.

The nature of series [3]: Metabolic stability in liver microsomes. The format is in vitro ADME. The settings on record: human liver microsomes 0.5 mg/mL, 1 μM compound, NADPH 1 mM; read-out: half-life period/(T1/2, min). The protocol: The test compound was co-incubated with human liver microsomes, and coenzyme NADPH was added to initiate the reaction. At 0, 5, 15, 30 and 60 minutes, 20 μL of incubation solution was taken out and transferred to 200 μL of acetonitrile containing internal standard to stop the reaction. After protein precipitation, centrifugation was performed at 3,700 rpm for 10 minutes and the supernatant was taken. The supernatant was diluted 1:1 with water and analyzed by LC-MS/MS method. According to the elimination half-life of the test compound in the incubation system, the in vitro intrinsic clearance rate was calculated. Midazolam was used as the internal reference compound and incubated for two aliquots in parallel.
The ratio of peak area of the analyte/internal standard (Aanalyte/AIS) was obtained by the instrument. The remaining percentage (% Control) was calculated from the ratio of Aanalyte/AIS in the non-zero time point sample to the zero time point sample. Ln (% Control) versus incubation time was plotted and a linear fit was performed. The clearance constant (k, min^−1), the clearance half-life (T1/2, min) and the in vitro intrinsic clearance rate (CLint, mL·min^−1·mg^−1 proteins) of the test compound were calculated by the following equations.
Cprotein(mg·mL^−1) refers to the concentration of microsomal protein in the incubation system.
(In general: Liver microsomes are a subcellular fraction often used to study metabolism.)

In series [4] the target is PI3Kα(C2C12) (Mus musculus (Mouse), UniProt P42337). Nature of the series: Cell activity of PI3K subtypes, AlphaLISA p-AKT (pS473). It counts as cell-based. To be noted: C2C12 cells, IGF-1 stimulated. From the text: (§1) The following method was used to determine the degree of inhibition of the compounds of the present invention on activity of PI3Kα, PI3Kβ, PI3Kγ, and PI3Kδ kinase in different cells. The AlphaLISA SureFire Ultra p-AKT1/2/3 (pS473) kit (#ALSU-PAKT-B500) of PE company was used in the method. The above kit used AlphaLISA technology, using donor and acceptor beads to detect the interaction of biomolecules, to detect the content of p-AKT (pS473), reflecting the intensity of inhibition of the compounds on PI3Kα, PI3Kβ, PI3Kγ and PI3Kδ at the cell level. For detailed experimental operations, please refer to the kit instructions.
(§2) The experimental procedure was briefly described as follows: the experiment was carried out in a 384-well plate using a Multidrop dispenser (Thermo, #836-4049), using different cells for different PI3K subtypes (PI3Kα: C2C12 cells (myoblasts); PI3Kβ: PC-3 cells (human prostate cancer cells); PI3Kγ: Raw264.7 cells (monocyte macrophages); PI3Kδ: Raji cells (lymphoma cells)). 6 μL of the corresponding cells were transferred to the wells of a 384-well plate. After centrifugation 500 RPM for 30 seconds, the plate was placed in a 37° C., 5% CO2 incubator for 2 hours. The test compound was first dissolved in DMSO to prepare a 10 mM stock solution, which was diluted 4-fold with DMSO. 30 nL was transferred by Echo (Labcyte, #550) to each well (final concentration is 10000 nM-0.2 nM), and incubated for 30 minutes. Then for C2C12 cells used for PI3Kα subtype, 2 uL IGF-1 (R&D, #291-G1-200, final concentration 1200 ng/mL) was added and incubated for 20 minutes. For PC-3 cells used for PI3Kβ subtype, 2 μL LPA (Sigma, #L7260, final concentration 15 ug/mL) was added and incubated for 20 minutes. For Raw264.7 cells used for PI3Kγ subtype, 2 uL C5a (Biotang, #RPR9899, final concentration 80 ng/mL) was added and incubated for 5 minutes. For Raji cells used for PI3Kδ subtype, 2 μL IgM (Jackson ImmunoResearch, #109-006-129, final concentration 3 ug/mL) was added and incubated for 10 minutes. After the incubation, AlphaLISA SureFire Ultra p-AKT1/2/3(pS473) kit was used to determine the AlphaLISA signal. The kit determination method was briefly described as follows: 20 μL Lysis Buffer was used to lyse the cells for 10 minutes. Then 5 uL acceptor mix and 5 uL donor mix were added to a 384-well plate. The plate was incubated with shaking at room temperature for 2 hours. Envision (PE, #2104) was used to read AlphaLISA signal. By comparing with the signal intensity ratio of the control group (0.5% DMSO), the percentage inhibition rate of the compound at each concentration was calculated. The GraphPad Prism 5 software was used to perform nonlinear regression analysis of the compound concentration logarithmic value vs. the inhibition rate to obtain the IC50 values of the compounds, shown in Table 3.
(Bead proximity is the source of the signal in Alpha formats.)

For series [5], the target named is PI3Kγ(Raw264.7) (Mus musculus (Mouse), UniProt Q9JHG7). Described as above. The format is cell-based.
Sequence of PI3Kγ(Raw264.7) (Q9JHG7 whole entry): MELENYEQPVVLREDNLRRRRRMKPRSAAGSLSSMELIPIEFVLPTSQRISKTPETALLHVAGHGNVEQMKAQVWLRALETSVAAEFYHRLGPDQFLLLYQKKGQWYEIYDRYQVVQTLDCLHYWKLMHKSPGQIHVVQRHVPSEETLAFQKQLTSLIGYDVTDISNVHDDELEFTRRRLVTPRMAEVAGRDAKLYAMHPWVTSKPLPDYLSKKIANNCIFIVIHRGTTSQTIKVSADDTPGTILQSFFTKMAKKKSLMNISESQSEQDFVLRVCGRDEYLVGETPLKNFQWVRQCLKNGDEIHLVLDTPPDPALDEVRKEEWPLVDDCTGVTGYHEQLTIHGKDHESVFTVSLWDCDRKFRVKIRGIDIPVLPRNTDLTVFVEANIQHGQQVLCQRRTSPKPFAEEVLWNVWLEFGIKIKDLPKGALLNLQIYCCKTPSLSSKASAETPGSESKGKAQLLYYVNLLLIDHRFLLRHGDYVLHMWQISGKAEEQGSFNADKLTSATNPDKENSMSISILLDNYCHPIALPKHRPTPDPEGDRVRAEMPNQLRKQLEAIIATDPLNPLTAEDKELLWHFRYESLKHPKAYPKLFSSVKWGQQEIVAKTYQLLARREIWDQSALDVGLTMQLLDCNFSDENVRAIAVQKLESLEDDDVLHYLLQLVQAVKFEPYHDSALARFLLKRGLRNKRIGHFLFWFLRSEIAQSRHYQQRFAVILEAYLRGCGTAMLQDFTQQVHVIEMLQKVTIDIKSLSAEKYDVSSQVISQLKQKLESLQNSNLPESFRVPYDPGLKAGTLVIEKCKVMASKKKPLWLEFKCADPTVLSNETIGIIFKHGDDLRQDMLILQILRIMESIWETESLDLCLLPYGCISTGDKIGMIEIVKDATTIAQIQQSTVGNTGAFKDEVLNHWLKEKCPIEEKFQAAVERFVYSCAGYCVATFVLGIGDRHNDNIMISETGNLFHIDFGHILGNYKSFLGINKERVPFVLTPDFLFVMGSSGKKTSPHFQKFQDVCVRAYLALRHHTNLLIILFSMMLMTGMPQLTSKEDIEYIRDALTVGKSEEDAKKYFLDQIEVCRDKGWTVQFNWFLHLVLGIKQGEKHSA
Sequence of PI3Kγ(Raw264.7) (Q5SW28 whole entry partner): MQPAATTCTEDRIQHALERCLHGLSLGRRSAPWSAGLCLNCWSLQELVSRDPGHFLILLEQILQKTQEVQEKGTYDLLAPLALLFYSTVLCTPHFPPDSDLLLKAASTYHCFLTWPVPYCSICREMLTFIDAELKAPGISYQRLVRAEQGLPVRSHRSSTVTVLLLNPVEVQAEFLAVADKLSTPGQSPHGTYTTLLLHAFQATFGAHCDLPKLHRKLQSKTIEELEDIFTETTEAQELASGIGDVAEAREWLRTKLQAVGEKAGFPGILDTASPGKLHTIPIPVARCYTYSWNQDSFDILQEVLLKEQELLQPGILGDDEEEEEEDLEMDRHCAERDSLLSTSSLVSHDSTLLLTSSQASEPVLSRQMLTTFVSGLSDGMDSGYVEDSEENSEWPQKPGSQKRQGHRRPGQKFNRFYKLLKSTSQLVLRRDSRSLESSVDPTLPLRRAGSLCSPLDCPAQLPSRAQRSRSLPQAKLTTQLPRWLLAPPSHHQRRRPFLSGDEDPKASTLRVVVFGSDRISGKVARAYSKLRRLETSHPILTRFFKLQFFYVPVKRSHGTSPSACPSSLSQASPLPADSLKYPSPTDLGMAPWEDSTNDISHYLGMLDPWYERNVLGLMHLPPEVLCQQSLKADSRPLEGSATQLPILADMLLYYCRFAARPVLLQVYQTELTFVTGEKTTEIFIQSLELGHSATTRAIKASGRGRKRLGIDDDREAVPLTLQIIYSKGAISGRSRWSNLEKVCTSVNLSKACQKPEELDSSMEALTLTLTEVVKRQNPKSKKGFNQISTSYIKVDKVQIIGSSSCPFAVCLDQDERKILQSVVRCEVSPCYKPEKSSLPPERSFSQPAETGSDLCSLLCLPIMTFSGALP
Description: as §1, §2

The target in series [6] is PI3Kδ(Raji) (Homo sapiens (Human), UniProt O00329). The series is described as above. It counts as cell-based. The settings on record: Raji cells, IgM stimulated.
Sequence of PI3Kδ(Raji) (O00329 whole entry): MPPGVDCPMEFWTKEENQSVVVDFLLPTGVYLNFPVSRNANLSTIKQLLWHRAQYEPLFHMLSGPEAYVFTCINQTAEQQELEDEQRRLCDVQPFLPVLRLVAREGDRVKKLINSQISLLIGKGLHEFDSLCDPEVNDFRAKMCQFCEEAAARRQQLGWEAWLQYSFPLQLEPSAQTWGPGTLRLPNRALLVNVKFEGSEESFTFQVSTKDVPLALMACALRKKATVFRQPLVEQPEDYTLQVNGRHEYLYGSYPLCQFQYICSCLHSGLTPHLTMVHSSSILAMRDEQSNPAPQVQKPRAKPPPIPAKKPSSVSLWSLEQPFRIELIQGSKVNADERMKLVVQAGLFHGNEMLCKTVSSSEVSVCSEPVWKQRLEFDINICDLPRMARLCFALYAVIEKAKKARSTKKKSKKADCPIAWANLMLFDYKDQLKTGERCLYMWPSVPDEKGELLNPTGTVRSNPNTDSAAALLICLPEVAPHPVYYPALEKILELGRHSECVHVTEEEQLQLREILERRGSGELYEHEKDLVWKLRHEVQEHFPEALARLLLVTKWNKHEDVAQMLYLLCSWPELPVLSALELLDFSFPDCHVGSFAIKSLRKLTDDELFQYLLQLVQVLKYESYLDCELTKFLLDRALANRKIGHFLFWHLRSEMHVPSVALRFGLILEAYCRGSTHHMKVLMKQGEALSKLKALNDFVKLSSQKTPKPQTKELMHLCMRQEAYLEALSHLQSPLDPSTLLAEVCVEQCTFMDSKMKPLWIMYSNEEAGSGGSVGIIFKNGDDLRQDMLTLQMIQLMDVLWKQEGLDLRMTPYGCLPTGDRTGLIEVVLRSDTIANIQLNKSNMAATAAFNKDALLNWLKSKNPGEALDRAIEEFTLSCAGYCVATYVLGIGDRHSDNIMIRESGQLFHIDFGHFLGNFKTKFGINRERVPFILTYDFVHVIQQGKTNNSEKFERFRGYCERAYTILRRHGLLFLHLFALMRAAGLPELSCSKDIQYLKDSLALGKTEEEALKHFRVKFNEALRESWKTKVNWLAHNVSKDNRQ
Sequence of PI3Kδ(Raji) (P27986 whole entry partner): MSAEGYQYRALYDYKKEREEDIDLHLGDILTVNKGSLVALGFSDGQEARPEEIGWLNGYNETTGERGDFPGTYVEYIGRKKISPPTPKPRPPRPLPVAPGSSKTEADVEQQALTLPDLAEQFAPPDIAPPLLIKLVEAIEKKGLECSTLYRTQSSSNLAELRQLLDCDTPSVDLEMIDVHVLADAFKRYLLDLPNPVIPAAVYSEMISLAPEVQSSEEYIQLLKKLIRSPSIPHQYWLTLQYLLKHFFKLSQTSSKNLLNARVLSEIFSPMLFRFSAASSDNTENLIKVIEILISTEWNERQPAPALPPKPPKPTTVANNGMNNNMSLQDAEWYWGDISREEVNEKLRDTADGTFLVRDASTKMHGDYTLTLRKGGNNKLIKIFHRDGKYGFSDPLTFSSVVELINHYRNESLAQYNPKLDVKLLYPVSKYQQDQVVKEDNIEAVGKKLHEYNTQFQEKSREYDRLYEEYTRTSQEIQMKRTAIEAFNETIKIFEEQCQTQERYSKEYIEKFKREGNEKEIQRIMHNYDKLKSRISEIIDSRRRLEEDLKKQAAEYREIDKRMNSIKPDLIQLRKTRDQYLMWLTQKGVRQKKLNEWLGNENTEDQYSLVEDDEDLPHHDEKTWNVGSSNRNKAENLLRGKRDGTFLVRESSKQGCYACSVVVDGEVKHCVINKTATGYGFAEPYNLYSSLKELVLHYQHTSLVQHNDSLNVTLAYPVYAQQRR
Description: as §1, §2

Series [7] addresses PI3Kβ(PC-3) (Homo sapiens (Human), UniProt P42338). Described as above. It counts as cell-based. To be noted: PC-3 cells, LPA stimulated.
Description: as §1, §2

Sequence of PI3Kβ(PC-3) (P42338 whole entry): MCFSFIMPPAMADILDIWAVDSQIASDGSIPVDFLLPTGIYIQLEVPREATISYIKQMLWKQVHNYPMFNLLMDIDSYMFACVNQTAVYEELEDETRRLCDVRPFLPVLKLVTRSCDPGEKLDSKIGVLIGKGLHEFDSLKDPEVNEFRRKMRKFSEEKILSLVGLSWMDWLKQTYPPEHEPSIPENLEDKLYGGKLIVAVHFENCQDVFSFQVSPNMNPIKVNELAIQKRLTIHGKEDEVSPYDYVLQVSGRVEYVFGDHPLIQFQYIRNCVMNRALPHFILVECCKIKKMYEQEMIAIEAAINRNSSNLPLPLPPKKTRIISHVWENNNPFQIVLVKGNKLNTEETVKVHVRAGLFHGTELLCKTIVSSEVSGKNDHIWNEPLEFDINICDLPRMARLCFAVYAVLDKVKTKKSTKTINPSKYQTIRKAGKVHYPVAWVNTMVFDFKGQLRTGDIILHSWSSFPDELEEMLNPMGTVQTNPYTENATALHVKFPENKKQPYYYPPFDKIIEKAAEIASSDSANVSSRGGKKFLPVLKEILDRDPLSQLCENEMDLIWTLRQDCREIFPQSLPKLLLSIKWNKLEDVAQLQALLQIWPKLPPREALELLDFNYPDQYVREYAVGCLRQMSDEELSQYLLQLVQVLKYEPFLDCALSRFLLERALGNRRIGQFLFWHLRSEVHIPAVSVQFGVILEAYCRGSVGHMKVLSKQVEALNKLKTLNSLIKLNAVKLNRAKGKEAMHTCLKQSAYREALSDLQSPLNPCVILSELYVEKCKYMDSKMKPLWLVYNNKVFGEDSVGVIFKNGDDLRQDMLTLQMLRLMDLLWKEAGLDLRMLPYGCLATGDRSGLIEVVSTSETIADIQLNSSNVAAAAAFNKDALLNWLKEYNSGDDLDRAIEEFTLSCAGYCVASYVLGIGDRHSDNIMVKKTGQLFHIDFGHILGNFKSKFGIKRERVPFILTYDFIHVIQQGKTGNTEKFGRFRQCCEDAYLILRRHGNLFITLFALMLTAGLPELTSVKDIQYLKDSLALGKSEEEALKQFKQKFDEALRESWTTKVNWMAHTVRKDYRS
Sequence of PI3Kβ(PC-3) (P27986 whole entry partner): as the sequence (P27986 whole entry partner) above
Sequence of recombinant human PI3Kβ (P42338 whole entry): as the sequence (P42338 whole entry) above
Sequence of recombinant human PI3Kβ (P27986 whole entry partner): as the sequence (P27986 whole entry partner) above

One may read the IC50 as the concentration that inhibits the measured activity by half. A word on the bioavailability: it is dose-corrected exposure relative to a reference, in per cent. As for `C[C@H](NC(=O)c1c(N)nn2cccnc12)c1nc2cccc(C#Cc3cnn(C4CC4)c3)c2c(=O)n1-c1ccccc1` [Example 2, (S)-2-amino-N-(1-(5-((1-cyclopropyl-1H-pyrazol-4-yl)ethynyl)-4-oxo-3-phenyl-3,4-dihydroquinazolin-2-yl)ethyl)pyrazolo[1,5-a]pyrimidine-3-carboxamide], the IC50 in series [1] came out at 466 nM; in series [4], 4770 nM; in series [5] (Raw264.7 cells, C5a stimulated, p-AKT (pS473)), 3.42 nM; in series [6] it was 355 nM; in series [7], 878 nM. The AUC(0-inf) in series [2] (read-out: Area under the curve AUC0-∞) was 11000 ng·h/mL. Besides, the bioavailability in series [2] (read-out: Bioavailability F) worked out at 66%. Moreover, the half-life in series [2] (read-out: Half-life period T1/2 (converted)) was 4.1 h. Also, the Cmax in series [2] (read-out: Plasma concentration Cmax) was 1160 ng/mL. The half-life at 1 μM in series [3] stood at 233 min. Also, the “IC50 (PI3Kα)/IC50(PI3Kγ)” value in series [5] (cell selectivity, C2C12 vs Raw264.7) was 1394. The “IC50 (PI3Kβ)/IC50(PI3Kγ)” value in series [5] (cell selectivity, PC-3 vs Raw264.7) worked out at 257. Moreover, in series [5] (cell selectivity, Raji vs Raw264.7), the “IC50 (PI3Kδ)/IC50(PI3Kγ)” value was 104.
